Values quoted from earlier work, collected in US8728489B2, “Immunotherapy for chronic hepatitis C virus infection” (priority 2008, dated 2014).

Tests used:
[1] = in vivo

Compound: NC(=O)c1ncn([C@@H]2O[C@H](CO)[C@@H](O)[C@H]2O)n1 [Ribavirin, 1-(beta)-D-ribofuranosyl-1H-1,2,4-triazole-3-carboxamide]
- solubility in anhydrous alcohol: slightly soluble
- solubility in water: freely soluble
- patients with hemolytic anemia [1]: 20-30%
